From US8916599B2, “1H-benz imidazole-5-carboxamides as anti-inflammatory agents” (Orexo AB, priority 2008, dated 2014)

molecular target: T1, recombinant human mPGES-1 (Homo sapiens, UniProt O14684); experiment: mPGES-1 inhibition test (microsomes, PGH2 substrate, HTRF detection of PGE2); type: biochemical; settings: inhibition of mPGES-1 at 10 μM
T1 construct: made in house; host or cells: Rosetta E. coli (microsomal/membrane fraction)
T1 sequence (O14684 1-152): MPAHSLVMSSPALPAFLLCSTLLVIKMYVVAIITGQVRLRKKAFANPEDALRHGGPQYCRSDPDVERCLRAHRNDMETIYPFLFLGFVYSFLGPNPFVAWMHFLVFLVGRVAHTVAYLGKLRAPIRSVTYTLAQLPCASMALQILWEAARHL
Summary of the method: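 Bacterial microsomes with GSH-containing phosphate buffer at pH 7.4 are exposed to test compounds for 25 minutes before a one-minute PGH2 conversion. The quenched, 750-fold diluted mixture is analysed by time-resolved FRET for PGE2.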

Point of comparison: `Cn1c(Nc2c(Cl)cc(F)cc2Cl)nc2cc(C(=O)N[C@H]3CC[C@H](C(F)(F)F)CC3)ccc21` [Example 432, 2-(2,6-Dichloro-4-fluorophenylamino)-1-methyl-N-((1R,4R)-4-trifluoromethyl-cyclohexyl)-1H-benzimidazole-5-carboxamide], inhibition at 10 µM 100%. Against it:
- Cn1c(Nc2cc(C(F)(F)F)ccc2Cl)nc2cc(C(=O)Nc3ccc(Br)cc3)ccc21 [Example 423, N-(4-Bromophenyl)-2-(2-chloro-5-trifluoromethyl-phenylamino)-1-methyl-1H-benzimidazole-5-carboxamide] — the same, 100%
- CCCCOc1cccc(NC(=O)c2ccc3[nH]c(Nc4c(Cl)cccc4Cl)nc3c2)n1 [Example 426, N-(6-Butoxypyridin-2-yl)-2-(2,6-dichlorophenylamino)-1H-benzimidazole-5-carboxamide] — lower, 98%
- CC(C)CCNC(=O)c1cc2nc(Nc3c(Cl)cccc3Cl)n(C)c2cc1F [Example 428, 2-(2,6-Dichlorophenylamino)-6-fluoro-N-isopentyl-1-methyl-1H-benzimidazole-5-carboxamide] — the same, 100%
- Cn1c(Nc2c(F)cccc2Cl)nc2cc(C(=O)NC3CCC(C)(C)CC3)c(F)cc21 [Example 430, 2-(2-Chloro-6-fluorophenylamino)-N-(4,4-dimethylcyclohexyl)-6-fluoro-1-methyl-1H-benzimidazole-5-carboxamide] — the same, 100%
- Cn1c(Nc2ccc(Cl)cc2C(F)(F)F)nc2cc(C(=O)Nc3ccc(Br)cc3)ccc21 [Example 433, N-(4-Bromophenyl)-2-(4-chloro-2-trifluoromethyl-phenylamino)-1-methyl-1H-benzimidazole-5-carboxamide] — lower, 99%
- Cn1c(Nc2c(Cl)cccc2Cl)nc2cc(C(=O)NC3CCC4(CC4)C3)ccc21 (stereo not shown) [Example 436, 2-(2,6-Dichlorophenylamino)-1-methyl-N-(spiro[2.4]heptan-5-yl)-1H-benzimidazole-5-carboxamide] — lower, 99%
- CCC1CCC(NC(=O)c2cc3nc(Nc4c(Cl)cccc4Cl)n(C)c3cc2F)CC1 (stereo not shown) [Example 437, 2-(2,6-Dichlorophenylamino)-N-(4-ethylcyclohexyl)-6-fluoro-1-methyl-1H-benzimidazole-5-carboxamide] — lower, 97%
- Cn1c(Nc2c(F)cccc2Cl)nc2cc(C(=O)NC3CCC4(CC3)CC4)ccc21 [Example 441, 2-(2-Chloro-6-fluorophenylamino)-1-methyl-N-(spiro[2.5]octan-6-yl)-1H-benzimidazole-5-carboxamide] — lower, 97%
- C[C@@H]1CCC[C@@H](NC(=O)c2cc3nc(Nc4c(Cl)cccc4Cl)n(C)c3cc2F)C1 [Example 442, 2-(2,6-Dichlorophenylamino)-6-fluoro-1-methyl-N-((1R,3R)-3-methylcyclohexyl)-1H-benzimidazole-5-carboxamide] — lower, 99%
- CCCC[C@H](C)NC(=O)c1cc2nc(Nc3c(Cl)cccc3Cl)[nH]c2cc1F [Example 443, (S)-2-(2,6-Dichlorophenylamino)-6-fluoro-N-(hexan-2-yl)-1H-benzimidazole-5-carboxamide] — the same, 100%
- Cn1c(Nc2c(Cl)cccc2Cl)nc2cc(C(=O)NC3CC(C)(C)C3)c(F)cc21 [Example 447, 2-(2,6-Dichlorophenylamino)-N-(3,3-dimethylcyclobutyl)-6-fluoro-1-methyl-1H-benzimidazole-5-carboxamide] — lower, 99%
- CCCC[C@H](C)NC(=O)c1cc2nc(Nc3c(Cl)cccc3Cl)n(C)c2cc1F [Example 450, (S)-2-(2,6-Dichlorophenylamino)-6-fluoro-N-(hexan-2-yl)-1-methyl-1H-benzimidazole-5-carboxamide] — lower, 99%
- Cn1c(Nc2c(Cl)cccc2Cl)nc2cc(C(=O)NCc3ncccc3Cl)c(F)cc21 [Example 452, N-((3-Chloropyridin-2-yl)methyl)-2-(2,6-dichlorophenylamino)-6-fluoro-1-methyl-1H-benzimidazole-5-carboxamide] — lower, 93%
- Cn1c(Nc2ccc(F)cc2Cl)nc2cc(C(=O)Nc3ccc(Br)cc3)ccc21 [Example 456, N-(4-Bromophenyl)-2-(2-chloro-4-fluorophenylamino)-1-methyl-1H-benzimidazole-5-carboxamide] — the same, 100%
- CCCC[C@@H](C)NC(=O)c1cc2nc(Nc3c(Cl)cccc3Cl)[nH]c2cc1F [Example 457, (R)-2-(2,6-Dichlorophenylamino)-6-fluoro-N-(hexan-2-yl)-1H-benzimidazole-5-carboxamide] — the same, 100%
- CCCCCCNC(=O)c1cc2nc(Nc3c(F)cccc3Cl)n(C)c2cc1F [Example 458, 2-(2-Chloro-6-fluorophenylamino)-6-fluoro-N-hexyl-1-methyl-1H-benzimidazole-5-carboxamide] — lower, 99%
- Cn1c(Nc2c(Cl)cccc2Cl)nc2cc(C(=O)Nc3cc(C(C)(C)C)ccn3)ccc21 [Example 464, N-(4-tert.-Butylpyridin-2-yl)-2-(2,6-dichlorophenylamino)-1-methyl-1H-benzimidazole-5-carboxamide] — lower, 99%
- COc1cc2c(cc1C(=O)NCc1ncccc1C)nc(Nc1c(Cl)cccc1Cl)n2C [Example 465, 2-(2,6-Dichlorophenylamino)-6-methoxy-1-methyl-N-((3-methylpyridin-2-yl)methyl)-1H-benzimidazole-5-carboxamide] — the same, 100%
- Cc1cnc(CNC(=O)c2cc3nc(Nc4c(Cl)cccc4Cl)n(C)c3cc2F)c(C)c1 [Example 470, 2-(2,6-Dichlorophenylamino)-N-((3,5-dimethylpyridin-2-yl)methyl)-6-fluoro-1-methyl-1H-benzimidazole-5-carboxamide] — the same, 100%
- CN(C)c1cccnc1CNC(=O)c1cc2nc(Nc3c(Cl)cccc3Cl)n(C)c2cc1F [Example 474, 2-(2,6-Dichlorophenylamino)-N-((3-dimethylamino-pyridin-2-yl)-methyl)-6-fluoro-1-methyl-1H-benzimidazole-5-carboxamide] — the same, 100%
- Cn1c(Nc2c(Cl)cccc2Cl)nc2cc(C(=O)N[C@H]3CC[C@H](C(F)F)CC3)c(F)cc21 [Example 475, 2-(2,6-Dichlorophenylamino)-N-((1r,4r)-4-(difluoromethyl)cyclohexyl)-6-fluoro-1-methyl-1H-benzimidazole-5-carboxamide] — the same, 100%
- Cn1c(Nc2c(F)cccc2Cl)nc2cc(C(=O)N[C@H]3CC[C@H](C(F)F)CC3)c(F)cc21 [Example 476, 2-(2-Chloro-6-fluorophenylamino)-N-((1r,4r)-4-(difluoromethyl)cyclohexyl)-6-fluoro-1-methyl-1H-benzimidazole-5-carboxamide] — the same, 100%
- Cn1c(Nc2c(Cl)cccc2Cl)nc2cc(C(=O)NC3CCC4(CC3)CC4)ccc21 [Example 483, 2-(2,6-Dichlorophenylamino)-1-methyl-N-(spiro[2.5]octan-6-yl)-1H-benzimidazole-5-carboxamide] — lower, 95%
- Cn1c(Nc2c(Cl)cccc2Cl)nc2cc(C(=O)NCCC3CC3)c(F)cc21 [Example 484, N-(2-Cyclopropylethyl)-2-(2,6-dichlorophenylamino)-6-fluoro-1-methyl-1H-benzimidazole-5-carboxamide] — lower, 95%
- O=C(NC1CCC2(CC1)CC2)c1ccc2[nH]c(Nc3c(F)cccc3Cl)nc2c1 [Example 488, 2-(2-Chloro-6-fluorophenylamino)-N-(spiro[2.5]octan-6-yl)-1H-benzimidazole-5-carboxamide] — lower, 98%
- Cc1cc(C)c(Nc2nc3cc(C(=O)Nc4ccc(Br)cc4)ccc3n2C)c(Cl)c1 [Example 489, N-(4-Bromophenyl)-2-(2-chloro-4,6-dimethylphenylamino)-1-methyl-1H-benzimidazole-5-carboxamide] — lower, 98%
- COc1cc2c(cc1C(=O)NCc1ncccc1OC)nc(Nc1c(Cl)cccc1Cl)n2C [Example 491, 2-(2,6-Dichlorophenylamino)-6-methoxy-N-((3-methoxypyridin-2-yl)-methyl)-1-methyl-1H-benzimidazole-5-carboxamide] — lower, 99%
- Cn1c(Nc2c(Cl)cccc2Cl)nc2cc(C(=O)Nc3cc(Cl)ccn3)cc(Br)c21 [Example 492, 7-Bromo-N-(4-chloropyridin-2-yl)-2-(2,6-dichlorophenylamino)-1-methyl-1H-benzimidazole-5-carboxamide] — lower, 98%
- Cn1c(Nc2c(Cl)cccc2Cl)nc2cc(C(=O)Nc3ccc(Cl)cn3)ccc21 [Example 494, N-(5-Chloropyridin-2-yl)-2-(2,6-dichlorophenylamino)-1-methyl-1H-benzimidazole-5-carboxamide] — lower, 99%
- O=C(N[C@H]1CC[C@H](C(F)F)CC1)c1cc2nc(Nc3c(Cl)cccc3Cl)[nH]c2cc1F [Example 496, 2-(2,6-Dichlorophenylamino)-N-((1r,4r)-4-(difluoromethyl)cyclohexyl)-6-fluoro-1H-benzimidazole-5-carboxamide] — the same, 100%
- Cc1ccc(NC(=O)c2ccc3[nH]c(Nc4c(Cl)cccc4Cl)nc3c2)nc1C [Example 498, 2-(2,6-Dichlorophenylamino)-N-(5,6-dimethylpyridin-2-yl)-1H-benzimidazole-5-carboxamide] — the same, 100%
- CN(C)c1cccc(Cl)c1Nc1nc2cc(C(=O)Nc3ccc(Br)cc3)ccc2n1C [Example 499, N-(4-Bromophenyl)-2-(2-chloro-6-(dimethylamino)phenylamino)-1-methyl-1H-benzimidazole-5-carboxamide] — the same, 100%
- O=C(Nc1cc(Cl)ccn1)c1cc(Br)c2[nH]c(Nc3c(Cl)cccc3Cl)nc2c1 [Example 500, 7-Bromo-N-(4-chloropyridin-2-yl)-2-(2,6-dichlorophenylamino)-1H-benzimidazole-5-carboxamide] — the same, 100%
